pIC50: −log10 of the molar value. Values joined by “and” are separate entries in the source; they are usually repeats but may differ in a detail not shown here. Equal entries are not always repeated.

The assay concerns the target T1, recombinant human GST-Syk (Homo sapiens, UniProt P43405).
T1 construct: purchased Carna Biosciences 08-176
Description: Homogeneous Time-Resolved Fluorescence (HTRF) assay for the recombinant human Syk enzyme. Type of assay: biochemical. Particulars: recombinant human GST-Syk 5 pM, ATP 25 μM, 10-dose titration 10 μM to 0.508 nM; read-out: rhSYK Activity IC50. In outline: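 GST-hSyk fusion protein phosphorylated a peptide for 45 min at room temperature. The reaction was quenched with 2 nM Eu-anti-phosphotyrosine antibody and 70 nM SA-APC in 15 mM Tris pH 7.5, 40 mM EDTA, 0.01% Tween 20. The HTRF signal was read after 30 min.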
As to `Cc1cc(Nc2nccc(C(F)F)n2)cc(-c2cn(CC(C)(O)CC#N)nn2)c1` (single isomer, unassigned) [Example 27.2, 4-(4-(3-((4-(Difluoromethyl)pyrimidin-2-yl)amino)-5-methylphenyl)-1H-1,2,3-triazol-1-yl)-3-hydroxy-3-methylbutanenitrile], the pIC50 is 7.68.

For `Cc1cc(Nc2cc(C(F)(F)F)ccn2)nc(-c2cn(C(CO)c3ccc(C(N)=O)cc3)nn2)c1` (centres unmarked) [Example 1.9, 4-{2-hydroxy-1-[4-(4-methyl-6-{[4-(trifluoromethyl)pyridin-2-yl]amino}pyridin-2-yl)-1H-1,2,3-triazol-1-yl]ethyl}benzamide], the pIC50 was 8.54.

Regarding `Cc1cc(Nc2nccc(OC(C)C)n2)cc(-c2cn(CC(C)(O)C(C)(C)O)nn2)c1` (centres unmarked) [Example 21.31, 2,3-dimethyl-1-[4-(3-methyl-5-{[4-(1-methylethoxy)pyrimidin-2-yl]amino}phenyl)-1H-1,2,3-triazol-1-yl]butane-2,3-diol], the negative-log IC50 (pIC50) is 7.68.

With `COC(=O)C(C)CCn1cc(-c2cc(C)cc(Nc3cc(C(F)(F)F)ccn3)n2)nn1` (racemic) [Example 5.85, methyl 2-methyl-4-[4-(4-methyl-6-{[4-(trifluoromethyl)pyridin-2-yl]amino}pyridin-2-yl)-1H-1,2,3-triazol-1-yl]butanoate], the pIC50 was 7.10.

For `Cc1cc(Nc2nccc(C(F)F)n2)cc(-c2cn(CC3CNC(=O)C3)nn2)c1` (single isomer, unassigned) [Example 28.1, 4-((4-(3-((4-(difluoromethyl)pyrimidin-2-yl)amino)-5-methylphenyl)-1H-1,2,3-triazol-1-yl)methyl)pyrrolidin-2-one], the pIC50 is 8.08.

Turning to `Cc1cc(Nc2nccc(C(F)F)n2)cc(-c2cn(C3CCCCC3(C)O)nn2)c1` (single isomer, unassigned) [Example 7.20, 2-[4-(3-{[4-(difluoromethyl)pyrimidin-2-yl]amino}-5-methylphenyl)-1H-1,2,3-triazol-1-yl]-1-methylcyclohexanol], the pIC50 is 7.81.

Consider `Cc1cc(Nc2cc(C(F)(F)F)ccn2)nc(-c2cn(C(C(=O)O)c3ccc(F)cc3)nn2)c1` (centres unmarked) [Example 3.10, (4-fluorophenyl)[4-(4-methyl-6-{[4-(trifluoromethyl)pyridin-2-yl]amino}pyridin-2-yl)-1H-1,2,3-triazol-1-yl]acetic acid], for which the negative logarithm of the IC50 (pIC50) was 8.41.

Take `Cc1cc(Nc2cc(C(F)(F)F)ccn2)nc(-c2cn(CC3=CCCCC3)nn2)c1` [Example 9.6, 6-[1-(cyclohex-1-en-1-ylmethyl)-1H-1,2,3-triazol-4-yl]-4-methyl-N-[4-(trifluoromethyl)pyridin-2-yl]pyridin-2-amine]: the pIC50 was 7.10.

Turning to `Cc1cc(Nc2cc(C(F)(F)F)ccn2)nc(-c2cn([C@@H]3CN(C(=O)CO)C[C@H]3O)nn2)c1` (racemic) [Example 13.1, (+/−)-2-Bydroxy-1-((3R,4R)-3-hydroxy-4-(4-(4-methyl-6-((4-(trifluoromethyl)pyridin-2-yl)amino)pyridin-2-yl)-1H-1,2,3-triazol-1-yl)pyrrolidin-1-yl)ethanone], the pIC50 is 8.38.

With `Cc1cc(Nc2cc(OC3CCC3)ccn2)nc(-c2cn(C(C)c3ccc(C(=O)O)cc3)nn2)c1` (centres unmarked) [Example 2.8, 4-{1-[4-(6-{[4-(cyclobutyloxy)pyridin-2-yl]amino}-4-methylpyridin-2-yl)-1H-1,2,3-triazol-1-yl]ethyl}benzoic acid], the negative logarithm of the IC50 (pIC50) is 5.30.

`Cc1cc(Nc2cc(C(F)(F)F)ccn2)nc(-c2cn(C(C)C(=O)NCCc3cn(C)c4ccccc34)nn2)c1` (centres unmarked) [Example 1.51, N-[2-(1-methyl-1H-indol-3-yl)ethyl]-2-[4-(4-methyl-6-{[4-(trifluoromethyl)pyridin-2-yl]amino}pyridin-2-yl)-1H-1,2,3-triazol-1-yl]propanamide]: the pIC50 is 6.73.

Take `Cc1cc(Nc2cc(C(F)(F)F)ccn2)nc(-c2cn(CC(O)CN)nn2)c1` (centres unmarked) [Example 4.22, 1-amino-3-[4-(4-methyl-6-{[4-(trifluoromethyl)pyridin-2-yl]amino}pyridin-2-yl)-1H-1,2,3-triazol-1-yl]propan-2-ol]: the pIC50 was 8.52.

`Cc1cc(Nc2cc(C(F)(F)F)ccn2)nc(-c2cn(CC(O)CN3CCOC3=O)nn2)c1` (centres unmarked) [Example 4.33, 3-{2-hydroxy-3-[4-(4-methyl-6-{[4-(trifluoromethyl)pyridin-2-yl]amino}pyridin-2-yl)-1H-1,2,3-triazol-1-yl]propyl}-1,3-oxazolidin-2-one]: the pIC50 is 7.83.

`CC(C)=CCn1cc(-c2cc(C)cc(Nc3cc(C(F)(F)F)ccn3)n2)nn1` [Example 5.37, 4-methyl-6-[1-(3-methylbut-2-en-1-yl)-1H-1,2,3-triazol-4-yl]-N-[4-(trifluoromethyl)pyridin-2-yl]pyridin-2-amine]: the pIC50 is 7.52.

For `Cc1cc(Nc2cc(C(F)(F)F)ccn2)nc(-c2cn(Cc3cc[nH]n3)nn2)c1` [Example 5.111, 4-methyl-6-[1-(1H-pyrazol-3-ylmethyl)-1H-1,2,3-triazol-4-yl]-N-[4-(trifluoromethyl)pyridin-2-yl]pyridin-2-amine], the pIC50 is 8.66.

On to `Cc1cc(Nc2cc(C(F)(F)F)ccn2)nc(-c2cn(-c3ncccc3Cl)nn2)c1` [Example 6.1, 6-(1-(3-Chloropyridin-2-yl)-1H-1,2,3-triazol-4-yl)-4-methyl-N-(4-(trifluoromethyl)pyridin-2-yl)pyridin-2-amine], for which the pIC50 is 7.39.

For `Cc1cc(Nc2cc(C(F)F)ccn2)nc(-c2cn(CC(C)(O)C(C)(C)O)nn2)c1` (centres unmarked) [Example 21.36, 1-[4-(6-{[4-(difluoromethyl)pyridin-2-yl]amino}-4-methylpyridin-2-yl)-1H-1,2,3-triazol-1-yl]-2,3-dimethylbutane-2,3-diol], the negative logarithm of the IC50 (pIC50) is 8.09.

As for `Cc1cc(Nc2cc(C(F)(F)F)ccn2)nc(-c2cn(C3CCC(C(N)=O)C(C)(C)C3)nn2)c1` (single isomer, unassigned) [Example 1.4, 2,2-dimethyl-4-[4-(4-methyl-6-{[4-(trifluoromethyl)pyridin-2-yl]amino}pyridin-2-yl)-1H-1,2,3-triazol-1-yl]cyclohexanecarboxamide], the negative logarithm of the IC50 (pIC50) is 8.42.

Take `Cc1cc(Nc2nccc(C(F)F)n2)cc(-c2cn(CC(C)(O)CO)nn2)c1` (single isomer, unassigned) [Example 21.7, 3-[4-(3-{[4-(difluoromethyl)pyrimidin-2-yl]amino}-5-methylphenyl)-1H-1,2,3-triazol-1-yl]-2-methylpropane-1,2-diol]: the negative-log IC50 (pIC50) is 8.14.

Turning to `Cc1cc(Nc2nccc(C(F)(F)F)n2)cc(-c2cn(CCCN3CCOCC3)nn2)c1` [Example 5.51, N-{3-mcthyl-5-[1-(3-morpholin-4-ylpropyl)-1H-1,2,3-triazol-4-yl]phenyl}-4-(trifluoromethyl)pyrimidin-2-amine], the pIC50 was 6.75.

In the case of `Cc1cc(Nc2nccc(C(F)(F)F)n2)cc(-c2cn([C@@H]3CCC[C@H](O)C3)nn2)c1` (racemic) [Example 17.1, Racemic cis-3-(4-(3-methyl-5-((4-(trifluoromethyl)pyrimidin-2-yl)amino)phenyl)-1H-1,2,3-triazol-1-yl)cyclohexanol], the pIC50 was 7.26.

As to `Cc1cc(Nc2cc(C(F)(F)F)ccn2)nc(-c2cn(C(C)C(=O)NCc3c(-c4ccccc4)noc3C)nn2)c1` (centres unmarked) [Example 1.47, N-[(5-methyl-3-phenylisoxazol-4-yl)methyl]-2-[4-(4-methyl-6-{[4-(trifluoromethyl)pyridin-2-yl]amino}pyridin-2-yl)-1H-1,2,3-triazol-1-yl]propanamide], the negative logarithm of the IC50 (pIC50) was 6.46.

In the case of `Cc1cc(Nc2ncc(F)c(C(F)F)n2)cc(-c2cn(CC3OC(=O)NC34CC4)nn2)c1` (single isomer, unassigned) [Example 7.33, 7-{[4-(3-{[4-(difluoromethyl)-5-fluoropyrimidin-2-yl]amino}-5-methylphenyl)-1H-1,2,3-triazol-1-yl]methyl}-6-oxa-4-azaspiro[2.4]heptan-5-one], the pIC50 was 7.95.

For the compound `Cc1cc(Nc2nccc(C(F)(F)F)n2)cc(-c2cn(CC(N)=O)nn2)c1` [Example 5.79, 2-[4-(3-methyl-5-{[4-(trifluoromethyl)pyrimidin-2-yl]amino}phenyl)-1H-1,2,3-triazol-1-yl]acetamide], the negative logarithm of the IC50 (pIC50) was 7.13 and 7.09.

Consider `Cc1cc(Nc2cc(C(F)(F)F)ccn2)nc(-c2cn([C@@H](C)C(=O)NCC(=O)O)nn2)c1` [Example 3.15, N-{(2S)-2-[4-(4-methyl-6-{[4-(trifluoromethyl)pyridin-2-yl]amino}pyridin-2-yl)-1H-1,2,3-triazol-1-yl]propanoyl}glycine], for which the negative logarithm of the IC50 (pIC50) was 8.05.

Consider `Cc1cc(Nc2nccc(C(F)(F)F)n2)cc(-c2cn(CC(C)(O)CO)nn2)c1` (single isomer, unassigned) [Example 21.3, 2-methyl-3-[4-(3-methyl-5-{[4-(trifluoromethyl)pyrimidin-2-yl]amino}phenyl)-1H-1,2,3-triazol-1-yl]propane-1,2-diol], for which the negative logarithm of the IC50 (pIC50) was 8.15.

Take `COC(=O)C(c1ccc(F)cc1)n1cc(-c2cc(C)cc(Nc3cc(C(F)(F)F)ccn3)n2)nn1` (racemic) [Example 5.26, methyl (4-fluorophenyl)[4-(4-methyl-6-{[4-(trifluoromethyl)pyridin-2-yl]amino}pyridin-2-yl)-1H-1,2,3-triazol-1-yl]acetate]: the negative-log IC50 (pIC50) is 7.20.

As for `Cc1cc(Nc2nccc(C(F)(F)F)n2)cc(-c2cn(CCS(C)(=O)=O)nn2)c1` [Example 5.62, N-(3-methyl-5-{1-[2-(methylsulfonyl)ethyl]-1H-1,2,3-triazol-4-yl}phenyl)-4-(trifluoromethyl)pyrimidin-2-amine], the pIC50 was 7.33.

For `Cc1cc(Nc2cc(C(F)(F)F)ccn2)nc(-c2cn(C3C=CCCC3)nn2)c1` (centres unmarked) [Example 5.36, 6-(1-cyclohex-2-en-1-yl-1H-1,2,3-triazol-4-yl)-4-methyl-N-[4-(trifluoromethyl)pyridin-2-yl]pyridin-2-amine], the pIC50 was 7.28.
